Reference: patent publication US9765105B2, “Macrolide compound” (Pulike Biological Engineering, Inc., priority 2013, dated 2017)

Columns and labels:
Assay in all cases: in vitro susceptibility, MIC by mini broth dilution
Assay type in all cases: cell-based
[1] = test system: Staphylococcus aureus CVCC26003; settings: strain CVCC26003
How it was run: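 MICs were determined by mini broth dilution under NCCLS standards in CAMHB, using revived S. aureus CVCC26003 subcultured 20 h at 35° C. Compounds were two-fold serially diluted in DMSO across 11 wells, with duplicate rows. Bacterial suspension was diluted 1:200 in medium before inoculation.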

[2] = test system: Actinobacillus pleuropneumoniae CVCC262; settings: strain CVCC262
How it was run: (§1)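 MICs determined by mini broth dilution per NCCLS (now CLSI) standards. Strains revived from −20° C, subcultured twice on solid medium at 35° C for 20 h; compounds two-fold serially diluted in DMSO over 11 gradients, duplicate rows, bacterial suspension diluted 1:200 in liquid medium.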

Haemophilus parasuis = test system: Haemophilus parasuis
How it was run: as §1

[3] = test system: Streptococcus equines CVCC556; settings: strain CVCC556
How it was run: as §1

[4] = test system: Pasteurella multocida CVCC399; settings: strain CVCC399
How it was run: as §1

| Compound | MIC values, Staphylococcus aureus CVCC26003 [1] | MIC values, Actinobacillus pleuropneumoniae CVCC262 [2] | MIC values, Haemophilus parasuis (Haemophilus parasuis) | MIC values, Streptococcus equines CVCC556 [3] | MIC values, Pasteurella multocida CVCC399 [4] |
| --- | --- | --- | --- | --- | --- |
| CCCN1C[C@H](C)[C@@H](O)[C@](C)(O)[C@@H](CC)OC(=O)[C@H](C)[C@@H](O[C@H]2C[C@@](C)(OC)[C@](O)(CNC3CCCC3)[C@H](C)O2)[C@H](C)[C@@H](O[C@@H]2O[C@H](C)C[C@H](N(C)C)[C@H]2O)[C@](C)(O)C[C@H]1C [syzx-130] | 0.25 ug/mi | 0.5 ug/mi | 8 ug/mi | 0.25 ug/mi | 0.5 ug/mi |
| CCCN1C[C@H](C)[C@@H](O)[C@](C)(O)[C@@H](CC)OC(=O)[C@H](C)[C@@H](O[C@H]2C[C@@](C)(OC)[C@](O)(CNCc3ccc(F)cc3F)[C@H](C)O2)[C@H](C)[C@@H](O[C@@H]2O[C@H](C)C[C@H](N(C)C)[C@H]2O)[C@](C)(O)C[C@H]1C [syzx-131] | 0.25 ug/mi | 0.25 ug/mi | 0.25 ug/mi | 0.25 ug/mi | 0.5 ug/mi |
| CCCN1C[C@H](C)[C@@H](O)[C@](C)(O)[C@@H](CC)OC(=O)[C@H](C)[C@@H](O[C@H]2C[C@@](C)(OC)[C@](O)(CNc3ccc(Cl)nn3)[C@H](C)O2)[C@H](C)[C@@H](O[C@@H]2O[C@H](C)C[C@H](N(C)C)[C@H]2O)[C@](C)(O)C[C@H]1C [syzx-132] | 1 ug/mi | 0.5 ug/mi | 0.5 ug/mi | 0.25 ug/mi | 2 ug/mi |
| CCCN1C[C@H](C)[C@@H](O)[C@](C)(O)[C@@H](CC)OC(=O)[C@H](C)[C@@H](O[C@H]2C[C@@](C)(OC)[C@](O)(CNCCCCO)[C@H](C)O2)[C@H](C)[C@@H](O[C@@H]2O[C@H](C)C[C@H](N(C)C)[C@H]2O)[C@](C)(O)C[C@H]1C [syzx-133] | 1 ug/mi | 1 ug/mi | 0.5 ug/mi | 0.5 ug/mi | 2 ug/mi |
| CCCN1C[C@H](C)[C@@H](O)[C@](C)(O)[C@@H](CC)OC(=O)[C@H](C)[C@@H](O[C@H]2C[C@@](C)(OC)[C@](O)(CNC(C)CCc3ccccc3)[C@H](C)O2)[C@H](C)[C@@H](O[C@@H]2O[C@H](C)C[C@H](N(C)C)[C@H]2O)[C@](C)(O)C[C@H]1C (stereo partly drawn) [syzx-134] | 0.25 ug/mi | 0.25 ug/mi | 0.25 ug/mi | 0.25 ug/mi | 0.5 ug/mi |
| CCCN1C[C@H](C)[C@@H](O)[C@](C)(O)[C@@H](CC)OC(=O)[C@H](C)[C@@H](O[C@H]2C[C@@](C)(OC)[C@](O)(CNCc3cccc(OC)c3)[C@H](C)O2)[C@H](C)[C@@H](O[C@@H]2O[C@H](C)C[C@H](N(C)C)[C@H]2O)[C@](C)(O)C[C@H]1C [syzx-135] | 1 ug/mi | 1 ug/mi | 0.5 ug/mi | 0.5 ug/mi | 2 ug/mi |
| CCCN1C[C@H](C)[C@@H](O)[C@](C)(O)[C@@H](CC)OC(=O)[C@H](C)[C@@H](O[C@H]2C[C@@](C)(OC)[C@](O)(CN3CCNCC3)[C@H](C)O2)[C@H](C)[C@@H](O[C@@H]2O[C@H](C)C[C@H](N(C)C)[C@H]2O)[C@](C)(O)C[C@H]1C [syzx-136] | 0.25 ug/mi | 0.5 ug/mi | 0.25 ug/mi | 0.25 ug/mi | 0.5 ug/mi |
| CCCN1C[C@H](C)[C@@H](O)[C@](C)(O)[C@@H](CC)OC(=O)[C@H](C)[C@@H](O[C@H]2C[C@@](C)(OC)[C@](O)(CNC(=O)C(F)(F)F)[C@H](C)O2)[C@H](C)[C@@H](O[C@@H]2O[C@H](C)C[C@H](N(C)C)[C@H]2O)[C@](C)(O)C[C@H]1C [syzx-137] | 0.5 ug/mi | 0.5 ug/mi | 0.5 ug/mi | 1 ug/mi | 2 ug/mi |
| CCCN1C[C@H](C)[C@@H](O)[C@](C)(O)[C@@H](CC)OC(=O)[C@H](C)[C@@H](O[C@H]2C[C@@](C)(OC)[C@](O)(CNc3ccnc(Cl)c3)[C@H](C)O2)[C@H](C)[C@@H](O[C@@H]2O[C@H](C)C[C@H](N(C)C)[C@H]2O)[C@](C)(O)C[C@H]1C [syzx-138] | 2 ug/mi | 2 ug/mi | 2 ug/mi | 0.5 ug/mi | 8 ug/mi |
| C#CCNC[C@]1(O)[C@H](C)O[C@@H](O[C@H]2[C@H](C)[C@@H](O[C@@H]3O[C@H](C)C[C@H](N(C)C)[C@H]3O)[C@](C)(O)C[C@@H](C)N(CCC)C[C@H](C)[C@@H](O)[C@](C)(O)[C@@H](CC)OC(=O)[C@@H]2C)C[C@@]1(C)OC [syzx-140] | 0.25 ug/mi | 0.25 ug/mi | 0.25 ug/mi | 0.25 ug/mi | 1 ug/mi |
| CCCN1C[C@H](C)[C@@H](O)[C@](C)(O)[C@@H](CC)OC(=O)[C@H](C)[C@@H](O[C@H]2C[C@@](C)(OC)[C@](O)(CNC(CC)C(=O)O)[C@H](C)O2)[C@H](C)[C@@H](O[C@@H]2O[C@H](C)C[C@H](N(C)C)[C@H]2O)[C@](C)(O)C[C@H]1C (stereo partly drawn) [syzx-141] | 0.25 ug/mi | 0.25 ug/mi | 0.25 ug/mi | 0.25 ug/mi | 1 ug/mi |
| CCCN1C[C@H](C)[C@@H](O)[C@](C)(O)[C@@H](CC)OC(=O)[C@H](C)[C@@H](O[C@H]2C[C@@](C)(OC)[C@](O)(CNCCCC(=O)O)[C@H](C)O2)[C@H](C)[C@@H](O[C@@H]2O[C@H](C)C[C@H](N(C)C)[C@H]2O)[C@](C)(O)C[C@H]1C [syzx-142] | 0.25 ug/mi | 0.25 ug/mi | 0.25 ug/mi | 0.5 ug/mi | 0.5 ug/mi |
| CCCN1C[C@H](C)[C@@H](O)[C@](C)(O)[C@@H](CC)OC(=O)[C@H](C)[C@@H](O[C@H]2C[C@@](C)(OC)[C@](O)(CNCCOCCO)[C@H](C)O2)[C@H](C)[C@@H](O[C@@H]2O[C@H](C)C[C@H](N(C)C)[C@H]2O)[C@](C)(O)C[C@H]1C [syzx-143] | 0.25 ug/mi | 0.25 ug/mi | 0.25 ug/mi | 0.25 ug/mi | 1 ug/mi |
| CCCN1CC(C)C(O)C(C)(O)C(CC)OC(=O)C(C)C(OC2CC(C)(OC)C(O)(CNC(CO)CO)C(C)O2)C(C)C(OC2OC(C)CC(N(C)C)C2O)C(C)(O)CC1C (stereo not drawn) [syzx-145] | 1 ug/mi | 64 ug/mi | 0.5 ug/mi | 0.5 ug/mi | 2 ug/mi |
| CCCN1C[C@H](C)[C@@H](O)[C@](C)(O)[C@@H](CC)OC(=O)[C@H](C)[C@@H](O[C@H]2C[C@@](C)(OC)[C@](O)(CNCCCO)[C@H](C)O2)[C@H](C)[C@@H](O[C@@H]2O[C@H](C)C[C@H](N(C)C)[C@H]2O)[C@](C)(O)C[C@H]1C [syzx-146] | 0.25 ug/mi | 0.25 ug/mi | 0.25 ug/mi | 0.25 ug/mi | 0.5 ug/mi |
| CCCCCNC[C@]1(O)[C@H](C)O[C@@H](O[C@H]2[C@H](C)[C@@H](O[C@@H]3O[C@H](C)C[C@H](N(C)C)[C@H]3O)[C@](C)(O)C[C@@H](C)N(CCC)C[C@H](C)[C@@H](O)[C@](C)(O)[C@@H](CC)OC(=O)[C@@H]2C)C[C@@]1(C)OC [syzx-147] | 0.25 ug/mi | 0.25 ug/mi | 0.25 ug/mi | 0.25 ug/mi | 0.5 ug/mi |
| CCCN1C[C@H](C)[C@@H](O)[C@](C)(O)[C@@H](CC)OC(=O)[C@H](C)[C@@H](O[C@H]2C[C@@](C)(OC)[C@](O)(CNN3CCOCC3)[C@H](C)O2)[C@H](C)[C@@H](O[C@@H]2O[C@H](C)C[C@H](N(C)C)[C@H]2O)[C@](C)(O)C[C@H]1C [syzx-148] | 0.25 ug/mi | 0.5 ug/mi | 0.5 ug/mi | 0.25 ug/mi | 1 ug/mi |
| CCCN1C[C@H](C)[C@@H](O)[C@](C)(O)[C@@H](CC)OC(=O)[C@H](C)[C@@H](O[C@H]2C[C@@](C)(OC)[C@](O)(CNC(C)CC(=O)O)[C@H](C)O2)[C@H](C)[C@@H](O[C@@H]2O[C@H](C)C[C@H](N(C)C)[C@H]2O)[C@](C)(O)C[C@H]1C (stereo partly drawn) [syzx-150] | 0.5 ug/mi | 1 ug/mi | 0.5 ug/mi | 0.25 ug/mi | 2 ug/mi |
